{"source": "patent US20220178944A1", "about": "“METHODS FOR IDENTIFYING DIFFERENTIAL HISTONE RETENTION FOR EPIGENETIC ALTERATIONS IN GERMLINE DNA OF ANIMALS” (Washington State University, priority 2020, published 2022)", "key": {"[1]": {"system": "sperm histone H3 retention sites", "assay": "Sperm differential histone retention regions (DHRs), histone H3 ChIP-Seq, glyphosate versus control lineage", "format": "in vivo, rat", "details": "F3 generation males; F0 25 mg/kg/day i.p. gestation days 8-14; edgeR p<1e-05", "description": "(§1) Outbred Sprague Dawley SD male and female rats were fed a standard diet with water ad lib and mated. […] Female and male rats of an outbred strain Hsd:Sprague Dawley SD (Harlan) at 70 to 100 days of age were fed ad lib with a standard rat diet and ad lib tap water.\n(§2) The gestating female rats treated were designated as the F0 generation. Breeding for each generation occurred at 70-90 days and 5 different litters were generated with no cousin or sibling breeding to avoid any inbreeding artifacts. Litters were culled to 10 pups (5 males and 5 females) between days 3-5 of birth to avoid litter effects. […] The F3 generation males were aged to 1 year of age for pathology analysis.\nHistone chromatin immunoprecipitation with genomic DNA was performed. Individual rat sperm were collected, and the sperm counts were determined for each individual. A sonication of 10 seconds was performed for each sperm sample to remove any somatic cell contamination using a Sonic Dismembrator Model 300 (Thermo Scientific Fisher, USA) then centrifuged 1800×g for 5 minutes at 4° C. then resuspended and counted individually on a Neubauer counting chamber (Propper manufacturing Co., Inc., New York, USA). The sperm samples were reconstituted up to 1 ml with PBS (phosphate buffered saline). […]"}, "[2]": {"details": "cited from earlier work"}, "sperm DNA methylation": {"system": "sperm DNA methylation", "assay": "Sperm differential DNA methylation regions (DMRs), MeDIP-Seq, glyphosate versus control lineage", "format": "in vivo, rat", "details": "F3 generation males, edgeR p<1e-05", "description": "as §1, §2\nBriefly, the epididymis was dissected free of fat and connective tissue, then, after cutting open the cauda, placed into 6 ml of phosphate buffer saline (PBS) for 20 minutes at room temperature. Further incubation at 4° C. will immobilize the sperm. The tissue was then minced, the released sperm pelleted at 4° C. 3,000×g for 10 min, then resuspended in NIM buffer and stored at −80° C. for further processing.\nAn appropriate amount of rat sperm suspension was used for DNA extraction. […]\nGenomic DNA was sonicated and run on 1.5% agarose gel for fragment size verification. […] DNA concentration was measured in Qubit (Life Technologies) with the ssDNA kit (Molecular Probes Q10212). […]"}, "[3]": {"assay": "Glyphosate metabolism turnover (half-life)", "format": "in vivo", "details": "worked out from 2-4 half-lives per 24-hour period"}, "[4]": {"details": "in vivo; cited from earlier work"}, "Sprague Dawley rats": {"system": "Sprague Dawley rats", "assay": "Histopathology and disease classification, F3 generation atrazine lineage males", "format": "in vivo, rat", "method": "Female and male rats of an outbred strain Hsd:Sprague Dawley SD (Harlan) at 70 to 100 days of age were fed ad lib with a standard rat diet and ad lib tap water. Timed-pregnant females on days 8 through 14 of gestation were administered daily intraperitoneal injections of atrazine (25 mg/kg BW/day dissolved in PBS) (Chem Service, Westchester Pa.) or dimethyl sulfoxide (DMSO) or as previously described. Twenty-five mg/kg for atrazine is 4% of rat oral LD50 and 50% of NOAEL.\nThe gestating female rats treated were designated as the F0 generation. F1-F3 generation control and atrazine lineages were housed in the same room and racks with lighting, food and water.\nRats were euthanized at 12 months of age by CO2 inhalation and cervical dislocation for tissue harvest. Testis, prostate, ovary, kidney, and gonadal fat pads were fixed in Bouin's solution (Sigma) followed by 70% ethanol, then processed for paraffin embedding and hematoxylin, and eosin (H & E) staining by standard procedures for histopathological examination. Paraffin five micron sections were processed and stained (Nationwide Histology, Spokane Wash., USA).\nFull necropsies were performed as required on animals that died prior to the time of scheduled sacrifice at one year and tumor classifications were performed.\nUpon dissection a brief examination of abdominal and thoracic organs was performed to look for obvious abnormalities. The tissues evaluated histologically were selected from previous literature showing them to have pathology in transgenerational models, with an emphasis on reproductive organs. Histopathology readers were trained to recognize the specific abnormalities evaluated for this study in rat testis, ventral prostate and kidney (see below). Two different readers initially evaluated the tissues. […] Readers were blinded to the exposure groups. A set of quality control (QC) slides was generated for each tissue and was read by each reader prior to evaluating any set of experimental slides. These QC slide results are monitored for reader accuracy and concordance.\nTestis histopathology criteria included the presence of vacuoles in the seminiferous tubules, azoospermic atretic seminiferous tubules, and ‘other’ abnormalities including sloughed spermatogenic cells in the center of the tubule and a lack of a tubule lumen. Prostate histopathology criteria included the presence of vacuoles in the glandular epithelium, atrophic glandular epithelium and hyperplasia of prostatic gland epithelium (FIG. 25). Kidney histopathology criteria included reduced size of glomerulus, thickened Bowman's capsule, and the presence of proteinaceous fluid-filled cysts >50 μm in diameter (FIG. 25). A cut-off was established to declare a tissue ‘diseased’ based on the mean number of histopathological abnormalities plus two standard deviations from the mean of control group tissues, as assessed by each of the individual readers. This number (i.e. greater than two standard deviations) was used to classify rats into those with and without testis, prostate, or kidney disease in the F3 generation lineage. A rat tissue section was finally declared ‘diseased’ only when at least two of the three readers marked the same tissue section ‘diseased’.\nLean phenotype was assessed with a decrease in adipocyte size (area), body mass index (BMI) and abdominal adiposity. BMI was calculated with weight (g)/length (cm)^2 with the length of the animal measured from the nose to the base of the tail. Gonadal fat pad slides were imaged using a Nikon Eclipse E800 microscope (10×) with an AVT Prosilica GE1050C Color GigE camera. Five field of view image captures were taken per slide in varying parts of the fat pad. Adipocyte size was measured converting pixels into microns using Adiposoft. Measurements of the 20 largest cells from each image for a total of 100 were averaged as hypertrophic cells are the most metabolically relevant and susceptible to cell death. […]"}, "[5]": {"details": "F3 generation atrazine lineage males, 1 year of age, # evaluated 55"}}}
{"compound": "O=C(O)CNCP(=O)(O)O", "note": "[glyphosate]", "values": [{"measurement": "number of sperm DHRs, glyphosate versus control", "setting": "[1]", "value": 836}, {"measurement": "No Observational Adverse Effect Level (NOAEL) dose", "setting": "[2]; direct exposure, mammalian rat model", "value": 50, "unit": "mg/kg per day"}, {"measurement": "No Observable Adverse Effect Level (NOAEL) exposure", "setting": "[2]; rat, in vivo", "value": 50, "unit": "mg/kg/day"}, {"measurement": "total number of sperm DMRs, control versus glyphosate (All Window)", "setting": "sperm DNA methylation; F0 25 mg/kg/day i.p. gestation days 8-14", "value": 340}, {"measurement": "number of sperm DMRs with multiple neighboring 1000 bp windows, control versus glyphosate", "setting": "sperm DNA methylation", "value": 11}, {"measurement": "daily decrease of concentration during the transient exposure period", "setting": "[3]", "value": "75-90%"}, {"measurement": "half-life (metabolism turnover)", "setting": "[4]", "value": "5 to 10", "unit": "h"}]}
{"compound": "CCNc1nc(Cl)nc(NC(C)C)n1", "note": "[atrazine]", "values": [{"measurement": "prevalence of transgenerational lean pathology in the exposed population", "setting": "Sprague Dawley rats; F3 generation atrazine lineage", "value": "nearly a third of the animals"}, {"measurement": "# affected, Kidney disease", "setting": "Sprague Dawley rats; [5]", "value": 8}, {"measurement": "# affected, Lean", "setting": "Sprague Dawley rats; [5]", "value": 15}, {"measurement": "# affected, Obese", "setting": "Sprague Dawley rats; [5]", "value": 4}, {"measurement": "# affected, Prostate disease", "setting": "Sprague Dawley rats; [5]", "value": 4}, {"measurement": "# affected, Testis disease", "setting": "Sprague Dawley rats; [5]", "value": 12}, {"measurement": "# affected, Tumor", "setting": "Sprague Dawley rats; [5]", "value": 1}, {"measurement": "# affected, Puberty Late", "setting": "Sprague Dawley rats; F3 generation atrazine lineage males, # evaluated 55", "value": 10}, {"measurement": "# affected, Puberty Early", "setting": "Sprague Dawley rats; F3 generation atrazine lineage males, F0 25 mg/kg/day i.p. gestation days 8-14, # evaluated 55", "value": 0}]}
